Source: ChEMBL document CHEMBL4422649, “Soluble-type small-molecule CD4 mimics as HIV entry inhibitors” (Bioorg Med Chem Lett, 2019)
In brackets after ≈: the same amount, converted by molar mass.

How the values were obtained:
[1] = molecular target: Envelope glycoprotein gp160 (Human immunodeficiency virus 1, UniProt Q6QLK5); test: Binding affinity to HIV1 cYTA48P envelope glycoprotein gp120 infected in human TZM-b1 cells assessed as induction of conformational changes measured after 48 hrs; format: cell-based
[2] = Cytotoxicity against human TZM-b1 cells assessed as reduction in cell viability by CCK8 assay; format: cell-based
[3] = molecular target: Envelope glycoprotein gp160 (Human immunodeficiency virus 1) (UniProt Q6QLK5); test: Binding affinity to HIV1 cYTA48P envelope glycoprotein gp120 infected in human TZM-b1 cells assessed as induction of conformational changes by measuring combination index at 450:1 ratio of test compound to KD-247 measured after 48 hrs; format: cell-based
[4] = Aqueous solubility of the compound in phosphate buffered saline; format: physicochemical
[5] = molecular target: Envelope glycoprotein gp160 (Human immunodeficiency virus 1) (UniProt Q6QLK5); test: Binding affinity to HIV1 cYTA48P envelope glycoprotein gp120 infected in human TZM-b1 cells assessed as induction of conformational changes by measuring combination index at 15:1 ratio of test compound to KD-247 measured after 48 hrs; format: cell-based

Envelope glycoprotein gp160 (Human immunodeficiency virus 1), sequence (Q6QLK5 1-814): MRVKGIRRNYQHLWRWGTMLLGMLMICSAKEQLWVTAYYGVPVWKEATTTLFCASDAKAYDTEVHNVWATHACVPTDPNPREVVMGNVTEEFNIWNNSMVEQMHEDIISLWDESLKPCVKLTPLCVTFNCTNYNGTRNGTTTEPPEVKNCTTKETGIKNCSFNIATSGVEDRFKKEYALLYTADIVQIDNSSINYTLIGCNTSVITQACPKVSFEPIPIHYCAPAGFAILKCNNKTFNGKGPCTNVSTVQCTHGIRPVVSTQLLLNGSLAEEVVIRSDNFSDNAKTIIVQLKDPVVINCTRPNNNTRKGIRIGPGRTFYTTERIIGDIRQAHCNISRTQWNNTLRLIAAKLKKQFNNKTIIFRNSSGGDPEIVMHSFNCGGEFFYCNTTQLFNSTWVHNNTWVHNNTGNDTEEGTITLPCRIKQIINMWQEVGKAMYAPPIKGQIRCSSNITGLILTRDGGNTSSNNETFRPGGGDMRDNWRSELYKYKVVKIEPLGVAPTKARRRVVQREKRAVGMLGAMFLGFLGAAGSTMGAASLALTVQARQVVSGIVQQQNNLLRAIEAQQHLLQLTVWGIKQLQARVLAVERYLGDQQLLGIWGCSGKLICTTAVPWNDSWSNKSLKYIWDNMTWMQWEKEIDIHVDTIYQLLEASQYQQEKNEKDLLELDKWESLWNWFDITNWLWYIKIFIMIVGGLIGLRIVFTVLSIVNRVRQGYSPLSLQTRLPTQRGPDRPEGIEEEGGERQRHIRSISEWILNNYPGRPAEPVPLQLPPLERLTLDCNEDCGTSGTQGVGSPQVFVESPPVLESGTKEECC
Envelope glycoprotein gp160, sequence (Q6QLK5 whole entry): as the sequence (Q6QLK5 1-814) above

**Q.** Which IC50 [1] does the source give for CC1(C)CC(NC(=O)C(=O)Nc2ccncc2)CC(C)(C)N1 here?
**A.** The IC50 was greater than 100 µM.

**Q.** What about the CC50 [2] of the same compound?
**A.** The CC50 was greater than 300 µM.

**Q.** What does the source list for CC1(C)CC(NC(=O)C(=O)Nc2ccc(I)cn2)CC(C)(C)N1?
**A.** IC50 [1]: 68 µM; CC50 [2]: 205 µM

**Q.** For COc1ccc(NC(=O)C(=O)NC2CC(C)(C)NC(C)(C)C2)cn1, which IC50 [1] is on record?
**A.** The IC50 was 27 µM.

**Q.** And the CC50 [2]?
**A.** Its CC50 is greater than 300 µM.

**Q.** Which results are given for CC1(C)CC(NC(=O)C(=O)Nc2ccnc(Br)c2)CC(C)(C)N1?
**A.** CI [3]: 0.16; IC50 [1]: 3.6 µM; CC50 [2]: 295 µM

**Q.** With CC1(C)CC(NC(=O)C(=O)Nc2ccnc(Cl)c2)CC(C)(C)N1 as the compound, how does the CI [3] read?
**A.** The CI was 0.2.

**Q.** What about the IC50 [1] of the same compound?
**A.** The IC50 was 2.3 µM.

**Q.** What about the CC50 [2] of the same compound?
**A.** The CC50 was greater than 300 µM.

**Q.** With CC1(C)CC(NC(=O)C(=O)Nc2ccc(Br)cn2)CC(C)(C)N1 as the compound, how does the IC50 [1] read?
**A.** Its IC50 is 42 µM.

**Q.** And the CC50 [2]?
**A.** Its CC50 is 71 µM.

**Q.** Which results are given for O=C(Nc1ccc(Br)nc1)C(=O)NC1CCNC2(CCCCC2)C1 (centres undefined)?
**A.** IC50 [1]: 1.2 µM; CC50 [2]: 180 µM

**Q.** With CC1(C)CC(NC(=O)C(=O)Nc2cccnc2)CC(C)(C)N1 as the compound, how does the IC50 [1] read?
**A.** Its IC50 is greater than 100 µM.

**Q.** What about the CC50 [2] of the same compound?
**A.** The CC50 was greater than 300 µM.

**Q.** Which results are given for CC1(C)CC(NC(=O)C(=O)Nc2ccc(F)nc2)CC(C)(C)N1?
**A.** CI [3]: 0.34; solubility [4]: 6.67 mM (≈ 2150 µg/mL); IC50 [1]: 2.1 µM; CC50 [2]: > 300 µM

**Q.** For CC1(C)CC(NC(=O)C(=O)Nc2ccc(F)cn2)CC(C)(C)N1, which IC50 [1] is on record?
**A.** Its IC50 is 59 µM.

**Q.** And the CC50 [2]?
**A.** The CC50 was greater than 300 µM.

**Q.** With CC1(C)CC(NC(=O)C(=O)Nc2ccc(Cl)cn2)CC(C)(C)N1 as the compound, how does the IC50 [1] read?
**A.** The IC50 was 61 µM.

**Q.** And the CC50 [2]?
**A.** Its CC50 is greater than 300 µM.

**Q.** What does the source list for CC1(C)CC(NC(=O)C(=O)Nc2cnc(F)c(F)c2)CC(C)(C)N1?
**A.** IC50 [1]: 7.6 µM; CC50 [2]: > 300 µM

**Q.** Which results are given for CC1(C)CC(NC(=O)C(=O)Nc2ccc(Br)nc2)CC(C)(C)N1?
**A.** solubility [4]: 3.62 mM (≈ 1390 µg/mL); IC50 [1]: 1.2 µM; CC50 [2]: > 300 µM

**Q.** Which results are given for CC1(C)CC(NC(=O)C(=O)Nc2ccnc(F)c2)CC(C)(C)N1?
**A.** IC50 [1]: 63 µM; CC50 [2]: > 300 µM

**Q.** With O=C(Nc1ccc(F)nc1)C(=O)NC1CCNC2(CCCCC2)C1 (centres undefined) as the compound, how does the IC50 [1] read?
**A.** Its IC50 is 0.46 µM.

**Q.** What about the CC50 [2] of the same compound?
**A.** The CC50 was greater than 300 µM.

**Q.** Which IC50 [1] does the source give for CC1(C)CC(NC(=O)C(=O)Nc2cccnc2Cl)CC(C)(C)N1 here?
**A.** Its IC50 is greater than 100 µM.

**Q.** And the CC50 [2]?
**A.** The CC50 was greater than 300 µM.

**Q.** Which IC50 [1] does the source give for Cc1cccc(NC(=O)C(=O)NC2CC(C)(C)NC(C)(C)C2)n1 here?
**A.** The IC50 was greater than 100 µM.

**Q.** And the CC50 [2]?
**A.** Its CC50 is 257 µM.

**Q.** Which IC50 [1] does the source give for O=C1Nc2ccc(Cl)cc2[C@@](C#CC2CC2)(C(F)(F)F)O1 [EFAVIRENZ] here?
**A.** Its IC50 is 0.0035 µM.

**Q.** What about the CC50 [2] of the same compound?
**A.** The CC50 was 20 µM.

**Q.** Which results are given for CC1(C)CC(NC(=O)C(=O)Nc2ccc(Cl)nc2)CC(C)(C)N1?
**A.** IC50 [1]: 4 µM; CC50 [2]: > 300 µM

**Q.** For CC1(C)CC(NC(=O)C(=O)Nc2ccc(C(F)(F)F)cn2)CC(C)(C)N1, which IC50 [1] is on record?
**A.** Its IC50 is 46 µM.

**Q.** What about the CC50 [2] of the same compound?
**A.** The CC50 was greater than 300 µM.

**Q.** For CC1(C)CC(NC(=O)C(=O)Nc2ccc(Cl)cc2)CC(C)(C)N1, which CI [5] is on record?
**A.** Its CI is 0.52.

**Q.** And the solubility [4]?
**A.** Its solubility is 1.39 mM (≈ 470 µg/mL).

**Q.** What about the IC50 [1] of the same compound?
**A.** The IC50 was 0.17 µM.

**Q.** And the CC50 [2]?
**A.** The CC50 was 116 µM.
